Data: PMC8410836, “Rational design of hyperstable antibacterial peptides for food preservation” (NPJ Science of Food, 2021)
Converted amounts (≈) assume the structure as drawn. Read-outs that look alike come from different tables or passages of the source. Where a SMILES comes first, the peptide text is derived from it. Bridges are numbered along the chain shown (N, C = ends).

How the values were obtained:
[1] = tested on: Micrococcus luteus ATCC4698
Experimental: (§1) Four Gram-positive bacteria: Listeria monocytogenes ATCC13932, Bacillus cereus ATCC11778, Staphylococcus aureus ATCC12900, and Micrococcus luteus ATCC4698 and three Gram-negative bacteria: Escherichia coli ATCC11775, Pectobacterium carotovorum MCC2112, and Salmonella typhimurium ATCC9844 were used in this study. These strains were stored at −80 °C in 25% (v/v) glycerol.
(§2) Antimicrobial assays against various bacterial cultures were done using the microdilution broth assay according to the Clinical and Laboratory Standards Institute (CLSI)[64] with some modifications. Mueller-Hinton broth was used to dilute the peptide stock and the bacterial inoculum. Inoculum was prepared from the mid-logarithmic phase culture. Each well of the microtiter plates received aliquots of 100 µL of the media containing different concentrations of peptide ranging from 0.3 to 300 µg/mL. The final concentration of bacteria in the wells was 5 × 10^5 Colony Forming Units (CFU) per mL. Ampicillin was used as positive control. For negative control, ultrapure water was used instead of peptides. Microtiter plates were incubated at 37 °C for 5–6 h with continuous shaking at 130 rpm (M. luteus cells were incubated for 7–8 h). The incubation time used for these assays was initially optimized using a 20-h incubation period. […] MIC assays were performed as three independent experiments in triplicates.

[2] = target: T1, bovine trypsin (Bos taurus, UniProt P00760); conditions: BAPNA substrate, pH 8.2, 0.05 M Tris-HCl, 0.02 M CaCl2, 37 °C; double reciprocal and Dixon plot; mean and standard error of two biological replicates
Experimental: (§3) The amidase activity of trypsin and its inhibition was assayed using the chromogenic substrate BAPNA at pH 8.2 in 0.05 M Tris-HCl containing 0.02 M CaCl2 at 37 °C. The assay reaction contained 50 µL of trypsin solution (40–50 μg of trypsin in 1 mM HCl), 50 µL of water, and 125 µL of the substrate. The reaction was carried out at 37 °C for 10 min and stopped by addition of 0.25 mL of 30% acetic acid. […] The trypsin solution was incubated with an aliquot of inhibitor for 10 min at 37 °C and reaction started by the addition of 125 µL substrate and incubated at 37 °C for 10 min. […] The effect of varying substrate concentration (BAPNA) on bovine trypsin in the presence of fixed concentrations of peptides was studied. The inhibition constants (Ki) were evaluated using the double reciprocal and Dixon plot of the data[65],[66]. Data presented are averages and standard error calculated from two biological replicate experiments.

[3] = tested on: Bacillus cereus ATCC11778
Experimental: as §1, §2

[4] = tested on: Escherichia coli ATCC11775
Experimental: as §1, §2

[5] = tested on: Listeria monocytogenes ATCC13932
Experimental: as §1, §2

[6] = tested on: Pectobacterium carotovorum MCC2112
Experimental: as §1, §2

[7] = tested on: Salmonella typhimurium ATCC9844
Experimental: as §1, §2

[8] = tested on: Staphylococcus aureus ATCC12900
Experimental: as §1, §2

[9] = tested on: ARPE-19 cells; conditions: 16 h, WST-1, Fig. 10a ARPE-19
Experimental: Cytotoxicity against adult retinal pigmented epithelial (ARPE-19, ATCC CRL2302) cells was measured using WST assay. ARPE-19 cells growing in log phase were seeded into 96-well cell-culture plates at 4 × 10^4 the cells were incubated at 37 °C for 24 h under 5% CO2. Peptide is added with final concentrations of 4–200 µg/mL in Dulbecco’s modified Eagle medium (DMEM/F12). Nutrient mixture media for the treatment group, whereas for the negative control group, media alone was added. The cells were incubated for 16 h at 37 °C under 5% CO2. Ten microliters of WST-1 reagent was added into each well. Plate was incubated at 37 °C for 2 h. Color intensity was measured at 450 nm. Cytotoxicity data presented are averages and standard error from three biological replicate experiments.

[10] = tested on: human red blood cells (hRBCs); conditions: peptide 0 to 200 μg/mL, 4% hRBCs in PBS, 1 h, 37 °C, absorbance 414 nm, Triton X-100 = 100%; three biological replicates
Experimental: The hemolytic activity of the peptide was evaluated using human red blood cells (hRBCs). Erythrocytes were separated from 1 mL of blood by centrifugation at 1500 rpm for 10 min. Collected hRBCs were washed three times with PBS, diluted to 4% (v/v) in PBS. Hundred microliters of the hRBCs having peptides ranging from 4 to 200 µg/mL as added into 96-well microtiter plate. The plates were incubated for 1 h at 37 °C without agitation and centrifuged at 1500 rpm for 5 min. Aliquots (100 μL) of the supernatant were transferred to 96-well plates and absorbance was measured at 414 nm. PBS and 1% Triton X-100 were used as control for 0% and 100% hemolysis, respectively. Percentage of hemolysis was calculated as (AT − AC)/(AX − AC) × 100; where AT is the experimental absorbance of treated supernatants, AC is the control absorbance of PBS-treated cell supernatant, and AX is the absorbance of 0.1% (v/v) Triton X-100 lysed cells. Data presented are averages and standard error from three biological replicate experiments.

[11] = target: T1, bovine trypsin; assay: biochemical; conditions: SEM
Experimental: as §3

[12] = microdilution broth, MH broth, 5 × 10^5 CFU/mL, 37 °C, 5–6 h, resazurin
[13] = microdilution broth (CLSI, modified), Mueller-Hinton broth, 5 × 10^5 CFU/mL, 37 °C, 7–8 h, resazurin colour change, three independent experiments in triplicates

T1 sequence (P00760 24-246): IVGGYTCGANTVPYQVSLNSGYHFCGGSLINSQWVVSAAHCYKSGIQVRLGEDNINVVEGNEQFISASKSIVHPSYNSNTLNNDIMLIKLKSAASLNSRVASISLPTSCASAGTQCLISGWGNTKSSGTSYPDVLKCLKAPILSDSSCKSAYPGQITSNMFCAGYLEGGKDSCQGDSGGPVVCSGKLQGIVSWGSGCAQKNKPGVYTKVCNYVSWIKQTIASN

| SMILES | MIC (µg/mL) M. luteus ([1]; ATCC4698) [µg/mL] | Ki (M) against bovine trypsin [2] | MIC Bacillus cereus [3, 12] [µg/mL] | MIC Escherichia coli [4, 12] [µg/mL] | MIC Listeria monocytogenes [5, 12] [µg/mL] | MIC (µg/mL) M. luteus [1, 13] [µg/mL] | MIC Pectobacterium carotovorum [6, 12] [µg/mL] | MIC Salmonella typhimurium [7, 12] [µg/mL] | MIC Staphylococcus aureus [8, 12] [µg/mL] | cell viability ([9]; peptide concentration 200 µg/mL) [%] | cell viability ([9]; peptide concentration range 0–160 µg/mL, three biological replicates) [%] | hemolytic activity [10] [%] | Ki [11] [nM] | MIC Bacillus cereus ([3]; ATCC11778) [µg/mL] | MIC Escherichia coli ([4]; ATCC11775) [µg/mL] | MIC Listeria monocytogenes ([5]; ATCC13932) [µg/mL] | MIC Pectobacterium carotovorum [6] [µg/mL] | MIC Salmonella typhimurium ([7]; ATCC9844) [µg/mL] | MIC Staphylococcus aureus ([8]; ATCC12900) [µg/mL] |
| --- | --- | --- | --- | --- | --- | --- | --- | --- | --- | --- | --- | --- | --- | --- | --- | --- | --- | --- | --- |
| CC[C@H](C)[C@H](NC(=O)[C@@H](NC(=O)[C@@H](N)CO)C(C)C)C(=O)N[C@@H](Cc1ccccc1)C(=O)NCC(=O)N[C@H]1CSSC[C@@H](C(=O)N[C@@H](Cc2ccccc2)C(=O)N[C@H](C(=O)NCC(=O)N[C@@H](Cc2ccccc2)C(=O)N[C@@H](CCCCN)C(=O)O)C(C)C)NC(=O)[C@H]([C@@H](C)CC)NC(=O)[C@@H]2CCCN2C(=O)[C@@H]2CCCN2C(=O)[C@H]([C@@H](C)CC)NC(=O)[C@H](CO)NC(=O)CNC(=O)[C@H]([C@@H](C)O)NC1=O [HSEP2-K8G] (H-SVIFGCTGSIPPICFVGFK-OH; disulfide 6-14) | 37.5 (≈ 19 µM) | failed to show any trypsin inhibition |  |  |  |  |  |  |  |  |  |  |  |  |  |  |  |  |  |
| CC[C@H](C)[C@H](NC(=O)[C@@H](NC(=O)[C@@H](N)CO)C(C)C)C(=O)N[C@@H](Cc1ccccc1)C(=O)NCC(=O)N[C@H]1CSSC[C@@H](C(=O)N[C@@H](Cc2ccccc2)C(=O)N[C@H](C(=O)NCC(=O)N[C@@H](Cc2ccccc2)C(=O)N[C@@H](CCCCN)C(=O)O)C(C)C)NC(=O)[C@H]([C@@H](C)CC)NC(=O)[C@@H]2CCCN2C(=O)[C@@H]2CCCN2C(=O)[C@H]([C@@H](C)CC)NC(=O)[C@H](CO)NC(=O)[C@H](CCCCN)NC(=O)[C@H]([C@@H](C)O)NC1=O [HSEP2] (H-SVIFGCTKSIPPICFVGFK-OH; disulfide 6-14) |  |  | 75 (≈ 36.7 µM) | 150 (≈ 73.5 µM) | >150 | 6.25 (≈ 3.06 µM) | 150 (≈ 73.5 µM) | >150 | >150 | > 70 | > 80 | < 5 | 580 |  |  |  |  |  |  |
| CC[C@H](C)[C@H](NC(=O)[C@@H](NC(=O)[C@H](CO)NC(=O)[C@@H](N)CCCNC(=N)N)C(C)C)C(=O)N[C@@H](Cc1ccccc1)C(=O)NCC(=O)N[C@H]1CSSC[C@@H](C(=O)N[C@@H](Cc2ccccc2)C(=O)N[C@H](C(=O)NCC(=O)N[C@@H](Cc2ccccc2)C(=O)N[C@@H](CCCCN)C(=O)O)C(C)C)NC(=O)[C@H](Cc2ccccc2)NC(=O)[C@H](CCCNC(=N)N)NC(=O)[C@H](CCCNC(=N)N)NC(=O)[C@H](Cc2ccc(O)cc2)NC1=O [HSEP3-∆TL,CL^+] (H-RSVIFGCYRRFCFVGFK-OH; disulfide 7-12) | 3.125 (≈ 1.5 µM) | did not show any anti-trypsin activity |  |  |  |  |  |  |  |  |  |  |  | >150 | >150 | >150 | >150 | >150 | >150 |
| CC[C@H](C)[C@H](NC(=O)[C@H](Cc1ccccc1)NC(=O)[C@H](CO)NC(=O)[C@@H](N)CCCNC(=N)N)C(=O)N[C@@H](Cc1ccccc1)C(=O)NCC(=O)N[C@H]1CSSC[C@@H](C(=O)N[C@@H](Cc2ccccc2)C(=O)N[C@H](C(=O)NCC(=O)N[C@@H](Cc2ccccc2)C(=O)N[C@@H](CCCCN)C(=O)O)C(C)C)NC(=O)[C@H]([C@@H](C)CC)NC(=O)[C@@H]2CCCN2C(=O)[C@@H]2CCCN2C(=O)[C@H]([C@@H](C)CC)NC(=O)[C@H](CO)NC(=O)[C@H](CCCCN)NC(=O)[C@H]([C@@H](C)O)NC1=O [HSEP3a] (H-RSFIFGCTKSIPPICFVGFK-OH; disulfide 7-15) |  |  | >150 | >150 | >150 | 12.5 (≈ 5.57 µM) | >150 | >150 | >150 |  |  |  | 55 |  |  |  |  |  |  |
| CC[C@H](C)[C@H](NC(=O)[C@@H](NC(=O)[C@H](CO)NC(=O)[C@@H](N)CCCNC(=N)N)C(C)C)C(=O)N[C@@H](Cc1ccccc1)C(=O)NCC(=O)N[C@H]1CSSC[C@@H](C(=O)N[C@@H](Cc2ccccc2)C(=O)N[C@H](C(=O)NCC(=O)N[C@H](C(=O)N[C@@H](CCCNC(=N)N)C(=O)O)[C@@H](C)O)C(C)C)NC(=O)[C@H]([C@@H](C)CC)NC(=O)[C@@H]2CCCN2C(=O)[C@@H]2CCCN2C(=O)[C@H]([C@@H](C)CC)NC(=O)[C@H](CO)NC(=O)[C@H](CCCCN)NC(=O)[C@H]([C@@H](C)O)NC1=O [HSEP3b] (H-RSVIFGCTKSIPPICFVGTR-OH; disulfide 7-15) |  |  | 50 (≈ 22.9 µM) | >150 | 100 (≈ 45.9 µM) | 6.25 (≈ 2.87 µM) | 50 (≈ 22.9 µM) | >150 | >150 |  |  |  | 500 |  |  |  |  |  |  |
| CC[C@H](C)[C@H](NC(=O)[C@@H](NC(=O)[C@H](CO)NC(=O)[C@@H](N)CCCNC(=N)N)C(C)C)C(=O)N[C@@H](Cc1ccccc1)C(=O)NCC(=O)N[C@H]1CSSC[C@@H](C(=O)N[C@@H](Cc2ccccc2)C(=O)N[C@H](C(=O)NCC(=O)N[C@@H](Cc2ccccc2)C(=O)N[C@@H](CCCCN)C(=O)O)C(C)C)NC(=O)[C@H]([C@@H](C)CC)NC(=O)[C@@H]2CCCN2C(=O)[C@@H]2CCCN2C(=O)[C@H]([C@@H](C)CC)NC(=O)[C@H](CCCCN)NC(=O)[C@H](CO)NC(=O)[C@H](CCCCN)NC(=O)[C@H]([C@@H](C)O)NC1=O [HSEP3c] (H-RSVIFGCTKSKIPPICFVGFK-OH; disulfide 7-16; N-terminus and C-terminus assumed) | 3.125 (≈ 1.34 µM) |  |  |  |  |  |  |  |  |  |  |  | 1400 | 100 (≈ 43 µM) | 100 (≈ 43 µM) | 50 (≈ 21.5 µM) | 50 (≈ 21.5 µM) | >150 | 150 (≈ 64.5 µM) |
| CC[C@H](C)[C@H](NC(=O)[C@H](Cc1c[nH]c2ccccc12)NC(=O)[C@H](CO)NC(=O)[C@@H](N)CCCNC(=N)N)C(=O)N[C@@H](Cc1ccccc1)C(=O)N[C@H]1CSSC[C@@H](C(=O)N[C@@H](Cc2ccccc2)C(=O)N[C@H](C(=O)NCC(=O)N[C@@H](Cc2c[nH]c3ccccc23)C(=O)N[C@@H](CCCNC(=N)N)C(=O)O)C(C)C)NC(=O)[C@H]([C@@H](C)CC)NC(=O)[C@@H]2CCCN2C(=O)[C@@H]2CCCN2C(=O)[C@H]([C@@H](C)CC)NC(=O)[C@H](Cc2ccc(O)cc2)NC(=O)[C@H](CCCNC(=N)N)NC(=O)[C@H]([C@@H](C)O)NC1=O [HSEP3d] (H-RSWIFCTRYIPPICFVGWR-OH; disulfide 6-14; N-terminus and C-terminus assumed) | 3.125 (≈ 1.3 µM) |  |  |  |  |  |  |  |  |  |  |  | 370 | 100 (≈ 41.7 µM) | >150 | >150 | >150 | >150 | >150 |
